According to paper PMC9694146, “Novel [1,2,4]triazolo[3,4-b][1,3,4]thiadiazine and [1,2,4]triazolo[3,4-b][1,3,4]thiadiazepine Derivatives: Synthesis, Anti-Viral In Vitro Study and Target Validation Activity” (Molecules, 2022):

How the values were obtained:
[1] = Cytotoxicity, methyltetrazolium (MTT) assay on MDCK cell monolayer; assay type: cell-based; details: dog; MDCK cells, 72 h, MTT; read-out: CC50, cytotoxic concentration; the concentration resulting in 50% death of cells
Experimental: (§1) The cytotoxic properties of the compounds were investigated in a separate series of experiments. A series of threefold dilutions (300–3.7 µg/mL) were prepared from the test compounds, after which they were added to the wells of plates with a monolayer of MDCK cells (ATCC CCL-34). […] The plates with cells were incubated for 2 h. The precipitate was dissolved in DMSO (0.1 mL per well). The optical density in the wells was measured on a Thermo Multiskan FC plate photometer (Thermo Fisher Scientific, USA) at a wavelength of 540 nm. Based on the obtained data, CC50 values (the concentration of the compound, leading to a decrease in optical density by half, compared to wells without the addition of compounds) were calculated.

MDCK cells (ATCC CCL-34) = test: as above; assay type: cell-based
Experimental: as §1

Which melting point does the source give for CCCc1nnc2n1NCC=C(c1ccccc1)S2 here?
Its melting point is 103 to 104 °C.

For CCCc1nnc2n1N=CC=C(c1ccccc1)S2, which melting point is on record?
The melting point was 88 to 89 °C.

With Sc1nncn1N=CC#Cc1ccccc1 [Compound 1a, 4-((3-phenylprop-2-yn-1-ylidene)amino)-4H-1,2,4-triazole-3-thiol] as the compound, how does the CC50 at 72 h [1] read?
The CC50 at 72 h was 134 ± 11 µM.

For Cc1nnc(S)n1N=CC#Cc1ccccc1 [Compound 1b, 5-methyl-4-((3-phenylprop-2-yn-1-ylidene)amino)-4H-1,2,4-triazole-3-thiol], which CC50 at 72 h [1] is on record?
The CC50 at 72 h was 126 ± 11.3 µM.

With CCc1nnc(S)n1N=CC#Cc1ccccc1 [Compound 1c, 5-ethyl-4-((3-phenylprop-2-yn-1-ylidene)amino)-4H-1,2,4-triazole-3-thiol] as the compound, how does the CC50 at 72 h [1] read?
Its CC50 at 72 h is 119 ± 9.6 µM.

With Sc1nncn1NCC#Cc1ccccc1 [Compound 2a, 4-((3-phenylprop-2-yn-1-yl)amino)-4H-1,2,4-triazole-3-thiol] as the compound, how does the CC50 at 72 h [1] read?
Its CC50 at 72 h is over 1300 µM.

For Cc1nnc(S)n1NCC#Cc1ccccc1 [Compound 2b, 5-methyl-4-((3-phenylprop-2-yn-1-yl)amino)-4H-1,2,4-triazole-3-thiol], which CC50 at 72 h [1] is on record?
Its CC50 at 72 h is over 1200 µM.

With CCc1nnc(S)n1NCC#Cc1ccccc1 [Compound 2c, 5-ethyl-4-((3-phenylprop-2-yn-1-yl)amino)-4H-1,2,4-triazole-3-thiol] as the compound, how does the CC50 at 72 h [1] read?
The CC50 at 72 h was 487 ± 22.5 µM.

Which CC50 at 72 h [1] does the source give for CCCc1nnc(S)n1NCC#Cc1ccccc1 [Compound 2d, 5-propyl-4-((3-phenylprop-2-yn-1-yl)amino)-4H-1,2,4-triazole-3-thiol] here?
Its CC50 at 72 h is 138 ± 12 µM.

Which CC50 at 72 h [1] does the source give for C1=Nn2cnnc2S/C1=C\c1ccccc1 [Compound 6a, (Z)-7-benzylidene-7H-[1,2,4]triazolo[3,4-b][1,3,4]thiadiazine] here?
The CC50 at 72 h was 578 ± 32.3 µM.

For Cc1nnc2n1N=C/C(=C/c1ccccc1)S2 [Compound 6b, (Z)-7-benzylidene-3-methyl-7H-[1,2,4]triazolo[3,4-b][1,3,4]thiadiazine], which CC50 at 72 h [1] is on record?
Its CC50 at 72 h is 433 ± 37.6 µM.

Which CC50 at 72 h [1] does the source give for CCc1nnc2n1N=C/C(=C/c1ccccc1)S2 [Compound 6c, (Z)-7-benzylidene-3-ethyl-7H-[1,2,4]triazolo[3,4-b][1,3,4]thiadiazine] here?
The CC50 at 72 h was 979 ± 55.1 µM.

With CCCc1nnc2n1N=C/C(=C/c1ccccc1)S2 [Compound 6d, (Z)-7-benzylidene-3-propyl-7H-[1,2,4]triazolo[3,4-b][1,3,4]thiadiazine] as the compound, how does the CC50 at 72 h [1] read?
The CC50 at 72 h was over 1100 µM.

What about the “cytotoxicity at the highest concentration used” value (MDCK cells (ATCC CCL-34); 300 μg/mL, 1100–1300 μM) of the same compound?
Its value is “did not demonstrate cytotoxicity”.

For C1=Nn2cnnc2SC(c2ccccc2)=C1 [Compound 7a, 8-phenyl-[1,2,4]triazolo[3,4-b][1,3,4]thiadiazepine], which CC50 at 72 h [1] is on record?
Its CC50 at 72 h is 42.9 ± 3.2 µM.

Which results are given for CCc1nnc2n1N=CC=C(c1ccccc1)S2 [Compound 7c, 3-ethyl-8-phenyl-[1,2,4]triazolo[3,4-b][1,3,4]thiadiazepine]?
CC50 at 72 h [1]: 6.1 ± 0.3 µM; CC50, cytotoxic concentration; the concentration resulting in 50% death of cells (MDCK cells (ATCC CCL-34); 72 h, MTT): one-digit micromoles

Which CC50 at 72 h [1] does the source give for C(=C1\CNn2cnnc2S1)/c1ccccc1 [Compound 8a, (Z)-7-benzylidene-6,7-dihydro-5H-[1,2,4]triazolo[3,4-b][1,3,4]thiadiazine] here?
Its CC50 at 72 h is over 1300 µM.

With Cc1nnc2n1NC/C(=C/c1ccccc1)S2 [Compound 8b, (Z)-7-benzylidene-3-methyl-6,7-dihydro-5H-[1,2,4]triazolo[3,4-b][1,3,4]thiadiazine] as the compound, how does the CC50 at 72 h [1] read?
The CC50 at 72 h was over 1200 µM.

With CCc1nnc2n1NC/C(=C/c1ccccc1)S2 [Compound 8c, (Z)-7-benzylidene-3-ethyl-6,7-dihydro-5H-[1,2,4]triazolo[3,4-b][1,3,4]thiadiazine] as the compound, how does the CC50 at 72 h [1] read?
The CC50 at 72 h was over 1100 µM.

With CCCc1nnc2n1NC/C(=C/c1ccccc1)S2 [Compound 8d, (Z)-7-benzylidene-3-propyl-6,7-dihydro-5H-[1,2,4]triazolo[3,4-b][1,3,4]thiadiazine] as the compound, how does the CC50 at 72 h [1] read?
Its CC50 at 72 h is over 1100 µM.

With C1=C(c2ccccc2)Sc2nncn2NC1 [Compound 10a, 8-phenyl-5,6-dihydro-[1,2,4]triazolo[3,4-b][1,3,4]thiadiazepine] as the compound, how does the CC50 at 72 h [1] read?
The CC50 at 72 h was over 1300 µM.

For Cc1nnc2n1NCC=C(c1ccccc1)S2 [Compound 10b, 3-methyl-8-phenyl-5,6-dihydro-[1,2,4]triazolo[3,4-b][1,3,4]thiadiazepine], which CC50 at 72 h [1] is on record?
The CC50 at 72 h was over 1100 µM.

For CCc1nnc2n1NCC=C(c1ccccc1)S2 [Compound 10c, 3-ethyl-8-phenyl-5,6-dihydro-[1,2,4]triazolo[3,4-b][1,3,4]thiadiazepine], which CC50 at 72 h [1] is on record?
The CC50 at 72 h was 972 ± 66.4 µM.

With CCC(CC)O[C@@H]1C=C(C(=O)O)C[C@H](N)[C@H]1NC(C)=O [Oseltamivir carboxylate, reference compound] as the compound, how does the CC50 at 72 h [1] read?
Its CC50 at 72 h is over 100 µM.

For CC(N)C12CC3CC(CC(C3)C1)C2 (centres unmarked) [Rimantadine, reference compound], which CC50 at 72 h [1] is on record?
Its CC50 at 72 h is 312 ± 22.8 µM.
